Ki data for 43 molecules are collected here from patent publication US7220756B2, “N-sulfonylheterocyclopyrrolyl-alkylamine compounds as 5-hydroxytryptamine-6 ligands” (Wyeth, priority 2003, dated 2007).

For orientation: Ki means the equilibrium dissociation constant of an inhibitor or competing ligand from its target.

T1 sequence (P50406 whole entry): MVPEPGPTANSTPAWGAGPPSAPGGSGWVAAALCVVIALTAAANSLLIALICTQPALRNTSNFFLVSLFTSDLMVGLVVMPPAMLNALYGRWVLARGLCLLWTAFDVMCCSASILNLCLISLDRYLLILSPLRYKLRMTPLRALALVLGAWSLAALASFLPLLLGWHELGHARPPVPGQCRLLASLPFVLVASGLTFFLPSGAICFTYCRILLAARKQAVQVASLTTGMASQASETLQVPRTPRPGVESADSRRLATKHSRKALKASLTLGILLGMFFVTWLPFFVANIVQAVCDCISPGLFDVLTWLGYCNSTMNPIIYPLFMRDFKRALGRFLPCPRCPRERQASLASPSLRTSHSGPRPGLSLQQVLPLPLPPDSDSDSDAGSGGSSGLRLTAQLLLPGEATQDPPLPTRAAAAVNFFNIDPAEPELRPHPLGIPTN

This test concerns the target T1, human cloned 5-HT6 receptors (Homo sapiens, UniProt P50406).
T1 construct: expressed in transfected cells; host or cells: HeLa cells
Description: 5-HT6 binding affinity, [3H]-LSD displacement. To be noted: membranes of Hela cells expressing human cloned 5-HT6 receptors; [3H]-LSD 3.0 nM; 120 min, room temperature; read-out: 5-HT6 Binding Ki. The protocol: The affinity of test compounds for the serotonin 5-HT6 receptor is evaluated in the following manner. Cultured Hela cells expressing human cloned 5-HT6 receptors are harvested and centrifuged at low speed (1,000×g) for 10.0 min to remove the culture media. The harvested cells are suspended in half volume of fresh physiological phosphate buffered saline solution and recentrifuged at the same speed. This operation is repeated. The collected cells are then homogenized in ten volumes of 50 mM Tris.HCl (pH 7.4) and 0.5 mM EDTA. The homogenate is centrifuged at 40,000×g for 30.0 min and the precipitate is collected. The obtained pellet is resuspended in 10 volumes of Tris.HCl buffer and recentrifuged at the same speed. The final pellet is suspended in a small volume of Tris.HCl buffer and the tissue protein content is determined in aliquots of 10–25 μl volumes. Bovine Serum Albumin is used as the standard in the protein determination according to the method described in Lowry et al., J. Biol. Chem., 193:265 (1951). The volume of the suspended cell membranes is adjusted to give a tissue protein concentration of 1.0 mg/ml of suspension. The prepared membrane suspension (10 times concentrated) is aliquoted in 1.0 ml volumes and stored at −70° C. until used in subsequent binding experiments.
The reaction is allowed to proceed in the dark for 120 min at room temperature, at which time, the bound ligand-receptor complex is filtered off on a 96 well unifilter with a Packard Filtermate® 196 Harvester. The bound complex caught on the filter disk is allowed to air dry and the radioactivity is measured in a Packard TopCount® equipped with six photomultiplier detectors, after the addition of 40.0 μl Microscint®−20 scintillant to each shallow well. The unifilter plate is heat-sealed and counted in a PackardTopCount® with a tritium efficiency of 31.0%.
Binding in the presence of varying concentrations of test compound is expressed as a percentage of specific binding in the absence of test compound. The results are plotted as log % bound versus log concentration of test compound. […] A linear regression line of data points is plotted, from which the IC50 value is determined and the Ki value is determined based upon the following equation: Ki=IC50/(1+L/KD) where L is the concentration of the radioactive ligand used and KD is the dissociation constant of the ligand for the receptor, both expressed in nM.
Take `NCCc1cn(S(=O)(=O)c2ccc(Br)s2)c2sccc12` [Example 25, 2-{[6-(5-bromothien-2-yl)sulfonyl]-6H-thieno[2,3-b]pyrrol-4-yl}ethylamine]: the Ki is 17.7 ± 3.2 nM. On to `NCCc1cn(S(=O)(=O)c2cccs2)c2sccc12` [Example 26], for which the Ki was 20 ± 2 nM.

As for `NCCc1cn(S(=O)(=O)c2cc(Cl)c(Cl)s2)c2sccc12` [Example 27, 2-{[6-(4,5-dichlorothien-2-yl)sulfonyl]-6H-thieno[2,3-b]pyrrol-4-yl}ethylamine], the Ki turned out to be 32.7 ± 4.1 nM. For `NCCc1cn(S(=O)(=O)c2cccc3ccccc23)c2sccc12` [Example 28, 2-[6-(1-naphthylsulfonyl)-6H-thieno[2,3-b]pyrrol-4-yl]ethylamine] the value was 9.2 ± 0.8 nM. Turning to `Cc1cccc(S(=O)(=O)n2cc(CCN)c3ccsc32)c1` [Example 29, 2-{[6-(3-methylphenyl)sulfonyl]-6H-thieno[2,3-b]pyrrol-4-yl}ethylamine], the Ki was found to be 7.8 ± 0.4 nM. For `Cc1nc(S(=O)(=O)n2cc(CCN)c3ccsc32)cn1C` [Example 30, 2-{[6-(1,2-dimethyl-1H-imidazol-4-yl)sulfonyl]-6H-thieno[2,3-b]pyrrol-4-yl}ethylamine] the value was 134 ± 10.3 nM. Regarding `NCCc1cn(S(=O)(=O)c2cccc3cccnc23)c2sccc12` [Example 31, 2-{[6-(quinolin-8-yl)sulfonyl]-6H-thieno[2,3-b]pyrrol-4-yl}-ethylamine], the Ki stood at 8.6 ± 0.8 nM. To `NCCc1cn(S(=O)(=O)c2ccccc2C(F)(F)F)c2sccc12` [Example 32, 2-{{[6-(2-trifluoromethyl)phenyl]sulfonyl}-6H-thieno[2,3-b]pyrrol-4-yl}ethylamine] belongs 21 ± 2.7 nM; to `COc1ccc(S(=O)(=O)n2cc(CCN)c3ccsc32)cc1` [Example 33, 2-{[6-(4-methoxyphenyl)sulfonyl]-6H-thieno[2,3-b]pyrrol-4-yl}ethylamine], 24.7 ± 1.7 nM. Turning to `NCCc1cn(S(=O)(=O)c2ccc(N)cc2)c2sccc12` [Example 35, 2-{[6-(4-aminophenyl)sulfonyl]-6H-thieno[2,3-b]pyrrol-4-yl}ethylamine], the Ki was determined as 2.4 ± 0.3 nM. Turning to `CN(C)CCc1cn(S(=O)(=O)c2ccccc2)c2sccc12` [Example 38, N,N-Dimethyl-2-[6-(phenylsulfonyl)-6H-thieno[2,3-b]pyrrol-4-yl]ethylamine], the Ki amounted to 1.2 ± 0.1 nM.

Regarding `CN(C)CCc1cn(S(=O)(=O)c2cccc(C(F)(F)F)c2)c2sccc12` [Example 39, N,N-dimethyl-2-{{[6-(3-trifluoromethyl)phenyl]sulfonyl}-6H-thieno[2,3-b]pyrrol-4-yl}-ethylamine], the Ki came to 2.3 ± 0.5 nM.

On to `COc1cccc(S(=O)(=O)n2cc(CCN(C)C)c3ccsc32)c1` [Example 44], for which the Ki was 0.8 ± 0.1 nM.

Regarding `Cc1c(S(=O)(=O)n2cc(CCN(C)C)c3ccsc32)sc2ccc(Cl)cc12` [Example 45, N,N-dimethyl-2-{[6-(5-chloro-3-methylbenzo[b]thien-2-yl)sulfonyl]-6H-thieno[2,3-b]pyrrol-4-yl}ethylamine], the Ki worked out at 20.3 ± 3.4 nM.

Regarding `CN(C)CCc1cn(S(=O)(=O)c2ccccc2F)c2sccc12` [Example 46, N,N-dimethyl-2-{[6-(2-fluorophenyl)sulfonyl]-6H-thieno[2,3-b]pyrrol-4-yl}ethylamine], the Ki turned out to be 1.8 ± 0.1 nM. To `CN(C)CCc1cn(S(=O)(=O)c2cccc(F)c2)c2sccc12` [Example 47, N,N-dimethyl-2-{[6-(3-fluorophenyl)sulfonyl]-6H-thieno[2,3-b]pyrrol-4-yl]-ethylamine] belongs 2.1 ± 0.2 nM; to `CN(C)CCc1cn(S(=O)(=O)c2cccs2)c2sccc12` [Example 56, N,N-dimethyl-2-{(6-thien-2-ylsulfonyl)-6H-thieno[2,3-b]pyrrol-4-yl]-ethyllamine], 2.4 ± 0.2 nM. Regarding `CN(C)CCc1cn(S(=O)(=O)c2cccc3ccccc23)c2sccc12` [Example 58, N,N-dimethyl-2-{[6-(1-naphthyl)sulfonyl]-6H-thieno[2,3-b]pyrrol-4-yl}ethylamine], the Ki was 3.6 ± 0.1 nM.

Consider `Cc1cccc(S(=O)(=O)n2cc(CCN(C)C)c3ccsc32)c1` [Example 59, N,N-dimethyl-2-{[6-(3-methylphenyl)sulfonyl]-6H-thieno[2,3-b]pyrrol-4-yl}ethylamine], for which the Ki is 1.6 nM. To `Cc1nc(S(=O)(=O)n2cc(CCN(C)C)c3ccsc32)cn1C` [Example 60, N,N-dimethyl-2-{[6-(1,2-dimethyl-1H-imidazol-4-yl)sulfonyl]-6H-thieno[2,3-b]pyrrol-4-yl}ethylamine] belongs 50 ± 1 nM; to `CN(C)CCc1cn(S(=O)(=O)c2cccc3cccnc23)c2sccc12` [Example 61, N,N-dimethyl-2-{[6-(8-quinolinyl)sulfonyl]-6H-thieno[2,3-b]pyrrol-4-yl}ethylamine], 4.7 ± 0.1 nM.

As for `CN(C)CCc1cn(S(=O)(=O)c2ccccc2C(F)(F)F)c2sccc12` [Example 62, N,N-dimethyl-2-{{[6-(2-trifluoromethyl)phenyl]sulfonyl}-6H-thieno[2,3-b]pyrrol-4-yl}ethylamine], the Ki stood at 4.7 ± 0.1 nM. As to `COc1ccc(S(=O)(=O)n2cc(CCN(C)C)c3ccsc32)cc1` [Example 63, N,N-dimethyl-2-{[6-(4-methoxyphenyl)sulfonyl]-6H-thieno[2,3-b]pyrrol-4-yl}ethyl-amine], the Ki turned out to be 3.7 ± 0.1 nM. For the molecule `NCCc1cn(S(=O)(=O)c2ccc3ccccc3c2)c2ccsc12` [Example 66], the Ki is 9.2 ± 1 nM.

`COc1cccc(S(=O)(=O)n2cc(CCN)c3sccc32)c1` [Example 67, 2-{[4-(3-methoxyphenyl)sulfonyl]-4H-thieno[3,2-b]pyrrol-6-yl}ethylamine]: the Ki came to 2 ± 0.1 nM. In the case of `Cc1c(S(=O)(=O)n2cc(CCN)c3sccc32)sc2ccc(Cl)cc12` [Example 68], the Ki was found to be 25 ± 1 nM. To `CN(C)CCc1cn(S(=O)(=O)c2ccccc2)c2ccsc12` [Example 70] belongs 1.2 ± 0.1 nM; to `CN(C)CCc1cn(S(=O)(=O)c2cccc(C(F)(F)F)c2)c2ccsc12` [Example 71], 3 ± 0.2 nM; to `CN(C)CCc1cn(S(=O)(=O)c2c(Cl)nc3sccn23)c2ccsc12` [Example 74], 0.2 nM. For `COc1cccc(S(=O)(=O)n2cc(CCN(C)C)c3sccc32)c1` [Example 76] the value was 1.3 ± 0.1 nM; for `Cc1c(S(=O)(=O)n2cc(CCN(C)C)c3sccc32)sc2ccc(Cl)cc12` [Example 77], 24.3 ± 1.5 nM; for `CN(C)CCc1cn(S(=O)(=O)c2ccccc2F)c2ccsc12` [Example 78], 2.1 ± 0.1 nM. Take `CN(C)CCc1cn(S(=O)(=O)c2cccc(F)c2)c2ccsc12` [Example 79]: the Ki came to 0.9 nM. To “N,N-dimethyl-2-[6-(2-naphthylsufonyl)-6H-thieno[2,3-b]pyrrol-4-yl]ethylamine [Example 43]” belongs 2.5 ± 0.2 nM. Consider “N,N-dimethyl-2-{[6-(2,3-dichlorophenyl)sulfonyl]-6H-thieno[2,3-b]pyrrol-4-yl}ethyl-amine [Example 53]”, for which the inhibition constant Ki worked out at 3 ± 0.1 nM. Turning to “N,N-dimethyl-2-{[6-(2,6-dichloroimidazo[2,1-b]thiazol-5-yl)sulfonyl]-6H-thieno[2,3-b]pyrrol-4-yl}ethylamine [Example 51]”, the Ki came out at 6.8 ± 0.6 nM. To “N,N-dimethyl-2-{[6-(2-chloroimidazo[1,2-a]pyridin-3-yl)sulfonyl]-6H-thieno[2,3-b]pyrrol-4-yl}ethylamine [Example 50]” belongs 2.1 ± 0.1 nM; to “N,N-dimethyl-2-{[6-(2-chlorophenyl)sulfonyl]-6H-thieno[2,3-b]pyrrol-4-yl}ethylamine [Example 48]”, 5.5 ± 0.5 nM. Regarding “N,N-dimethyl-2-{[6-(3-bromophenyl)sulfonyl]-6H-thieno[2,3-b]pyrrol-4-yl}-ethylamine [Example 54]”, the Ki was found to be 1.7 ± 0.1 nM. For “N,N-dimethyl-2-{[6-(3-chloro-2-methylphenyl)sulfonyl]-6H-thieno[2,3-b]pyrrol-4-yl}-ethylamine [Example 64]” the value was 5.9 ± 1.4 nM; for “N,N-dimethyl-2-{[6-(3-chlorophenyl)sulfonyl]-6H-thieno[2,3-b]pyrrol-4-yl}ethylamine [Example 40]”, 1.6 ± 0.3 nM.

Regarding “N,N-dimethyl-2-{[6-(4,5-dichlorothien-2-yl)sulfonyl]-6H-thieno[2,3-b]pyrrol-4-yl]-ethyl]-amine [Example 57]”, the Ki worked out at 4.9 ± 0.3 nM. For “N,N-dimethyl-2-{[6-(4-chlorophenyl)sulfonyl]-6H-thieno[2,3-b]pyrrol-4-yl}ethylamine [Example 52]” the value was 2.6 ± 0.2 nM.
